# Reference: PubChem BioAssay AID1918946 (Molecular Pharmacology Branch, DTP, NCI, 2023)
# Several values for one entry are separate records, joined by “and”; a condition that tells them apart may be missing. Equal values may be shown once.
# Test system: 885512-296-R-J2-PDC complex spheroid viability
# Experiment: Anticancer human tumor 885512-296-R-J2-PDC patient-derived breast carcinoma cell line growth inhibition
# Conditions: for viability, T/C: stronger effect = lower value
# Text: Multicellular complex tumor spheroid response to LSD1 Inhibitor Iadademstat in combination with a variety of drugs and investigational agents in selected tumor cell lines
# The current study was undertaken to assess response to LSD1 inhibitors in combination with standard-of-care drugs and investigational agents in solid tumor complex spheroid models as well as in the K-562 leukemia. Complex spheroids include a stromal component modeled by human endothelial cells (HUVEC) and fibroblasts modeled by human mesenchymal stem cells (MSCs). The concentration ranges selected for each drug and investigational agent were based upon clinically achievable concentrations if the clinical Cmax of the agent was known.
# Compounds. The drugs and investigational agents used in this study are listed on Table 1. All of the agents used, including staurosporine (NSC755774) and gemcitabine (NSC613327), were obtained from the Developmental Therapeutics Program, NCI. FDA-approved anticancer drugs are available from the NCI at http://dtp.nci.nih.gov/branches/dscb/oncology_drugset_explanation.html. Drugs and investigational agents were >95% pure by proton nuclear magnetic resonance (NMR) and liquid chromatography/mass spectrometry (LC/MS). Stock solutions were prepared at 400x in DMSO, stored at -70 degrees C, and diluted in fresh medium prior to their use. The final concentration of DMSO in cell culture wells never exceeded 0.25% (v/v). The FDA-approved anticancer drug set is available from the Developmental Therapeutics Program at https://dtp.cancer.gov/organization/dscb/obtaining/available_plates.htm. All drugs and investigational agents were tested over a range starting from a high concentration at or near the clinical Cmax and decreasing in half-log increments. If the clinical Cmax for an agent had not been determined, the highest concentration tested was 10 microM.
# Cell Lines. The patient-derived cancer cell (PDC) lines: 292921-168-R-J2-PDC, K24384-001-R-PDC, and 521955-158-R2-J5-PDC pancreatic carcinomas, 556581-035-R-J1 ovarian carcinoma, 324938-238-R-J1-PDC, 855422-203-R-J1-PDC and 883617-216-R-J1-PDC urothelial bladder carcinomas, 743489-274-T-PDC renal cell carcinoma, 138582-R-J1 Merkel cell tumor, K60290-347-R-J1 and K57222-313-R-J1-PDC glioblastomas, 653999-131-R-J2-PDC, LG0703-F948-PDC, and 349418-098-R-PDC non-small cell lung carcinomas, 885512-296-R-J2-PDC, 171881-019-R-J1-PDC breast carcinomas and 186277-243-T-J2-PDC and 233499-124-R-J2-PDC colon carcinomas were obtained from the NCI Patient-Derived Models Repository (PDMR, https://pdmr.cancer.gov). The established cell lines NCI/ADR-RES (RRID:CVCL_14520 and OVCAR-5 (RRID:CVCL_1628) ovarian carcinomas, 786-O (RRID:CVCL_1051) and A498 (RRID:CVCL_A498) renal cell carcinoma, NCI-H211 (ATCC, cat. CRL-5824; RRID:CVCL_1529), NCI-H196 (ATCC, cat. CRL-5823, RRID:CVCL_1509), SW 1271 (ATCC, cat. CRL-2177, RRID:CVCL_1716) and NCI-H1876 (ATCC, cat. CRL-5902, RRID:CVCL_1503) small cell lung carcinomas, MDA-MB-231 (RRID:CVCL_0062) and MDA-MB-468 (RRID:CVCL_0419)breast carcinomas (10-12). Pooled donor human umbilical vein endothelial cells (HUVEC, Lonza, cat. CC-2519) and human mesenchymal stem cells (hMSC, Lonza, cat. PT-2501) were purchased from Lonza (Walkersville, MD).
# Cell Culture. All cells were maintained in an incubator at 37 degrees C and 5% CO2 with 95% humidity. The PDC lines were cultured according to standard operating procedures established by the NCI PDMR (https://pdmr.cancer.gov). Briefly all PDCs were thawed and cultured in Matrigel-coated flasks prepared with a working solution of 1X Ham's F-12 nutrient mix, without supplementation (Invitrogen, Waltham, MA, cat. 11765054), 100 U/mL penicillin-streptomycin (Invitrogen, cat. 15140122), and 2.5% Matrigel (Corning Inc., Corning, NY, cat. 354248) for the first three passages. […]
# 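Also: spheroids exposed to agents for 7 days before viability read.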
SMILES,"viability, T/C (compound 0.0316 µM)","viability, T/C (compound 0.1 µM)","viability, T/C (compound 0.316 µM)","viability, T/C (compound 1 µM)",IC50 (curve of compound),"viability, T/C (compound 0.00949 µM)","viability, T/C (compound 0.03 µM)","viability, T/C (compound 0.0949 µM)","viability, T/C (compound 0.3 µM)",other results
COc1ccc([C@@H](O)c2cc(-c3ncnc4cc(N5CCOCC5)ccc34)c(F)cc2Cl)nn1,83.8% and 95.7%,96.8% and 82.8%,81.9% and 61.3%,52.8% and 50.3%,1080 nM and 980 nM,,,,,"viability, T/C (compound 3.16 µM): 16.6% and 37.4%; viability, T/C (compound 10 µM): 10.3% and 9.6%"
Cn1ncnc1C1c2n[nH]c(=O)c3cc(F)cc(c23)NC1c1ccc(F)cc1 (centres undefined),36.5% and 55.6%,15.5% and 29.8%,,,15.9 nM and 38.4 nM,,,,,"viability, T/C (compound 0.000316 µM): 113% and 78.9%; viability, T/C (compound 0.001 µM): 96.4% and 90.1%; viability, T/C (compound 0.00316 µM): 81.5% and 89.5%; viability, T/C (compound 0.01 µM): 58.5% and 70.7%"
NC1CC1c1ccc(-c2cccc(O)c2)cc1 (centres undefined),,133%,,,,,,,,"IC50 (compound alone, run of 02/01/2022): > 10000 nM"
NC1CCC(NC2CC2c2ccccc2)CC1 (centres undefined),,,121% (2×) and 120%,,,,,,,"IC50 (compound alone, run of 01/24/2022): > 10000 nM"
NS(=O)(=O)OCC1CC(n2ccc3c(NC4CCc5ccccc54)ncnc32)CC1O (centres undefined),,,,,< 9.49 nM,19.9% and 20.9%,8.83% and 6.03%,7.38% and 2.26%,4.17% and 1.57%,"viability, T/C (compound 0.949 µM): 8.44% and 0.8%; viability, T/C (compound 3 µM): 6.16% and 0.67%"
Nc1ccccc1NC(=O)c1ccc(CNC(=O)OCc2cccnc2)cc1,,,,,62 nM and 25.2 nM,92.7% and 64.7%,63.2% and 46.1%,44.3% and 33.1%,22.8% and 16.8%,"viability, T/C (compound 0.949 µM): 12.9% and 6.76%; viability, T/C (compound 3 µM): 10.3% and 0.3%"
Nc1ccn(C2OC(CO)C(O)C2(F)F)c(=O)n1 (centres undefined),,,,,< 0.949 nM,5.82% and 2.16%,8.91% and 2.45%,10.2% and 2.79%,8.07% and 3.31%,"viability, T/C (compound 0.000949 µM): 5.28% and 20.8%; viability, T/C (compound 0.003 µM): 8.05% and 3%"
Nc1ncn(C2CC(O)C(CO)O2)c(=O)n1 (centres undefined),40.7% and 68.5%,28.2% and 37.6%,23.4% and 23.6%,11.6% and 15.8%,18.6 nM and 63.9 nM,,,,,"viability, T/C (compound 0.00316 µM): 74.3% and 93.4%; viability, T/C (compound 0.01 µM): 60.7% and 84.3%"
Nc1ncn(C2CC(O)C(CO)S2)c(=O)n1 (centres undefined),,,,,4.06 nM and 4.91 nM,39.5% and 33.1%,17.3% and 19.7%,10.9% and 9.65%,12% and 4.63%,"viability, T/C (compound 0.000949 µM): 81.4% and 90.5%; viability, T/C (compound 0.003 µM): 52.7% and 62.2%"
O=C(C=Cc1cccc(S(=O)(=O)Nc2ccccc2)c1)NO,,,,,45.7 nM and 26 nM,70% and 91.1%,60.1% and 44%,32.8% and 28.1%,20.3% and 16.4%,"viability, T/C (compound 0.949 µM): 13.7% and 2.92%; viability, T/C (compound 3 µM): 13.9% and 72.2%"
O=C(C=Cn1cnc(-c2cc(C(F)(F)F)cc(C(F)(F)F)c2)n1)NNc1cnccn1,3.88% and 2.23%,6.09% and 0.68%,7.95% and 0.57%,6.27% and 0.53%,< 3.16 nM,,,,,"viability, T/C (compound 0.00316 µM): 31.1% and 23.7%; viability, T/C (compound 0.01 µM): 5.75% and 8.41%"
O=C(c1cc(Cc2n[nH]c(=O)c3ccccc23)ccc1F)N1CCN(C(=O)C2CC2)CC1,81.2% and 95.5%,92.8% and 89.7%,57.2% and 74.8%,17.2% and 46.9%,395 nM and 813 nM,,,,,"viability, T/C (compound 3.16 µM): 10.2% and 11.8%; viability, T/C (compound 10 µM): 7.83% and 6.41%"
